Key:
EGFR (WT) = EGFR (WT) (Homo sapiens, UniProt P00533); test: Screening for EGFR inhibitory activity; format: biochemical
Experimental: 1.2 Screening for EGFR (Epidermal Growth Factor Receptor) Inhibitory Activity
50 ng/μL EGFR (WT) stock solution was diluted with kinase buffer (50 mM HEPES, 10 mM MgCl2, 2 mM DTT, 1 mM EGTA, 0.01% Tween 20), and 6 μL of 1.67× working solution at 0.01336 ng/μL (final concentration: 0.008 ng/μL) was added to each well. Different compounds dissolved in DMSO were added to the wells using a nanoliter pipettor, resulting in the final concentration of 1000 nM to […] (4-fold gradient for 7 concentrations in total), and blank control wells (without enzyme) and negative control wells (with enzyme, plus vehicle DMSO) were set, 2 replicate wells for each well. After enzyme was reacted with the compound or vehicle for 10 min, 5× ATP at 25 μM (final concentration: 5 μM) prepared with kinase buffer was mixed with 5× substrate at 0.5 μM (final concentration: 0.1 μM, ULight-poly GT) at a ratio of 1:1, and the mixture was added to each well at 4 μL/well. After being sealed with a film, the plate was incubated at room temperature for 2 h, then 5 μL of 4×EDTA at 40 mM (final concentration: 10 mM) was added to each well. After the plate was incubated for 5 min at room temperature, 5 μL of 4× detection reagent at 8 nM (final concentration: 2 nM, Eu-anti-phospho-tyrosine antibody) was added to each well, followed by incubation at room temperature for 1 h. The plate was read using a PE Envision multi-functional microplate reader (excitation: 320 nm, emission: 665 nm), and IC50 was calculated by four-parameter fitting.

[1] = target: T1, BTK (Y223) phosphorylation in Ramos lymphoma cells (Homo sapiens, UniProt Q06187); test: BTK (Y223) phosphorylation inhibition at cell level; format: cell-based
T1 construct: Ramos lymphoma cells in logarithmic growth phase were centrifuged; endogenous in cells; host or cells: Ramos lymphoma cells
Experimental: EXPERIMENTAL EXAMPLE 2: SCREENING FOR BTK (Y223) PHOSPHORYLATION INHIBITION ACTIVITY AT CELL LEVEL
20 μL of 30% hydrogen peroxide was added in 860 μL of double distilled water to prepare 200 mM hydrogen peroxide. PV (sodium pervanadate): 10 μL of 200 mmol/L sodium orthovanadate was reacted with 10 μL of 200 mmol/L hydrogen peroxide in 80 μL of RPMI 1640 complete medium at room temperature for 15 min, and the reaction solution was diluted with RPMI 1640 complete medium to 6 mM. It was prepared freshly prior to use. Ramos lymphoma cells in logarithmic growth phase were centrifuged at 1500 rpm for 3 min using a low-speed centrifuge, added with a proper amount of RPMI 1640 complete medium, resuspended and counted. A proper amount of corresponding culture medium was added to a proper amount of cell suspension to adjust the cell density to about 1-2×10E7 cells/mL. The cells at the above cell density were seeded in a 384-well plate at 20 μL/well, then 5 μL of compound was added to each well, and the plate was incubated for 1 h. 20 mM PV was diluted with RPMI 1640 complete medium to 6 mM (final concentration: 1 mM), added to wells at 5 μL/well according to the plate distribution, and incubated for 15-20 min. The blank group was wells seeded with cells, without compound and PV, and the control group was wells seeded with cells, without compound and with PV. 10 μL of lysis buffer (4×) containing blocking buffer was added immediately and incubated by shaking at room temperature for 30 min. After the mixture was mixed, 16 μL of lysate was transferred to another 384-well small-volume white plate. The plate was added with 4 μL of pre-mixed antibody (vol/vol) in assay buffer, covered, centrifuged to mix well, and incubated overnight at room temperature. The 665 nm/620 nm signal value was detected using a PE Envision multi-functional microplate reader, and IC50 was calculated by four-parameter fitting.

[2] = Human liver microsome metabolic stability; format: in vitro ADME; details: human liver microsomes
Experimental: 3.1 Human Liver Microsome Assay
300 μL of final incubation system: 30 μL of human liver microsomes (protein concentration: 5 mg/mL, XENOTECH, USA), 30 μL of NADPH (10 mM)+MgCl2 (5 mM), 3 μL of the substrate, i.e., the example compound (dissolved in 50% aqueous acetonitrile solution, 100 μM), and 237 μL of PBS buffer, wherein the proportion of the organic solvent (acetonitrile) was 0.5%. Each tube was added with 270 μL of a mixed solution of substrate and enzyme, and after being pre-incubated at 37° C. for 5 min, added with 30 μL of NADPH+MgCl2. Then 50 μL of the mixture was taken at 0 min, 15 min, 30 min and 60 min, and added with 300 μL of diazepam glacial acetonitrile (20 ng/mL) containing an internal standard to quench the reaction. The reaction mixture was vortexed for 5 min, and centrifuged (13,000 rpm, 4° C.) for 10 min. 100 μL of supernatant was pipetted into a sample vial, from which 1 μL of supernatant was injected and analyzed by LC-MS/MS, and the residual percentage was calculated.

EGFR (WT), sequence (P00533 25-1210, species assumed): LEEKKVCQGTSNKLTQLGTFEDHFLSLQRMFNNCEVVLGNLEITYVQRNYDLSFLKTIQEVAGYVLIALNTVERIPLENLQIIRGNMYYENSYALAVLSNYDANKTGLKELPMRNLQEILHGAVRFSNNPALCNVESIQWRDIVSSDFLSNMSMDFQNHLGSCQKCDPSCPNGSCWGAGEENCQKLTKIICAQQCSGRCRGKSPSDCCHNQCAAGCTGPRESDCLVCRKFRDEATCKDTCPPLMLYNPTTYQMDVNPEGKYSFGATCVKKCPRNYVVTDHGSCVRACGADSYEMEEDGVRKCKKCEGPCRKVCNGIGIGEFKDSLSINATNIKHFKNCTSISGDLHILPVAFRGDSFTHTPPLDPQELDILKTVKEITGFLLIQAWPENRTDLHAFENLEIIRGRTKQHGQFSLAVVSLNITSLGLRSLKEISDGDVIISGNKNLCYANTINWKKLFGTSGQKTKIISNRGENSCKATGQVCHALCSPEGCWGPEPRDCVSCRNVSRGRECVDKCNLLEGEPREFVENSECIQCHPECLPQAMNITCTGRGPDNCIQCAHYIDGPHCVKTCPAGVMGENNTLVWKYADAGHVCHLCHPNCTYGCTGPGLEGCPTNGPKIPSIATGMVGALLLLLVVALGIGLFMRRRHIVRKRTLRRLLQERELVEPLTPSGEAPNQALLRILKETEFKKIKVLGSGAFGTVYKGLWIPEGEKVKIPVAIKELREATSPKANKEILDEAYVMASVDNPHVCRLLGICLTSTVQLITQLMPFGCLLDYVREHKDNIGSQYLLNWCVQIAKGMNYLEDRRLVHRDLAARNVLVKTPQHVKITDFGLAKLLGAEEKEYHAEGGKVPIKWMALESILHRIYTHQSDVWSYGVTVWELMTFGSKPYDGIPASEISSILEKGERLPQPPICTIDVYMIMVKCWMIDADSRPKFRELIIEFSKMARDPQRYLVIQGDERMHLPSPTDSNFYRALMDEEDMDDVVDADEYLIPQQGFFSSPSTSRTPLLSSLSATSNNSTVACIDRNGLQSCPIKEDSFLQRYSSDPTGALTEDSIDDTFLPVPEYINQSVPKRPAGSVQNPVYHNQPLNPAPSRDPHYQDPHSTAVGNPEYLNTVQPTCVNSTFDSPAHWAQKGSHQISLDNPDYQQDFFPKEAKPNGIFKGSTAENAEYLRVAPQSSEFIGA
T1 sequence (Q06187 whole entry): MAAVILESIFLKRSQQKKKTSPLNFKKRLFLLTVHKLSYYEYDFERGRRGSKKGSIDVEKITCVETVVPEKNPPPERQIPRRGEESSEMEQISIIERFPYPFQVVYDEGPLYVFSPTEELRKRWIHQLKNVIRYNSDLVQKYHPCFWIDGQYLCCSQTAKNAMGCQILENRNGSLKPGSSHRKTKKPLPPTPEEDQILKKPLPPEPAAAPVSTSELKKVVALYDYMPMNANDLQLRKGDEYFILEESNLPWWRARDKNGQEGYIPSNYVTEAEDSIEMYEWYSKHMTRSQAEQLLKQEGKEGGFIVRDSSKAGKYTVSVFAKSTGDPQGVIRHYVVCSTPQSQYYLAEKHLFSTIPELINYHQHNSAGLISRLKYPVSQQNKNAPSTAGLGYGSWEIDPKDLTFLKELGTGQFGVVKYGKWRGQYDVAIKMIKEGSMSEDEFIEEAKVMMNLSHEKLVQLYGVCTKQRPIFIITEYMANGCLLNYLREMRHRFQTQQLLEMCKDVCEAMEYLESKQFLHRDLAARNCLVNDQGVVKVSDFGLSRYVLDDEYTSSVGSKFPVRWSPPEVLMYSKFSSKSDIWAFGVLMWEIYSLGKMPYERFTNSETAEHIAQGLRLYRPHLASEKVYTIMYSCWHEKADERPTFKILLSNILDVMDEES

Row | SMILES | IC50 (EGFR (WT)) | IC50 [1] | Human (HLM) Remaining % (T = 60 min) [2]
1 | CC#CC(=O)N1[C@@H]2COC[C@@H]2C[C@H]1c1nc(-c2ccc(C(=O)Nc3ccccn3)cc2)c2c(N)nccn12 [Compound I-1, 4-(8-amino-3-((2S,3aR,6aS)-1-(but-2-ynoyl)hexahydro-1H-furo[3,4-b]pyrrol-2-yl)imidazo [1,5-a]pyrazin-1-yl)-N-(pyridin-2-yl)benzamide] | > 1000 nM | 30 nM | 89%
2 | C=CC(=O)N1[C@@H]2COC[C@@H]2C[C@H]1c1nc(-c2ccc(C(=O)Nc3ccccn3)cc2)c2c(N)nccn12 [Compound I-3, 4-(3-((2S,3AR,6AS)-1-ACRYLOYLHEXAHYDRO-1H-FURO[3,4-B]PYRROL-2-YL)-8-AMINOIMIDAZO [1,5-A]PYRAZIN-1-YL)-N-(PYRIDIN-2-YL)BENZAMIDE] | 107 nM | 25 nM | 74%
3 | CC#CC(=O)N1[C@@H]2COC[C@@H]2C[C@H]1c1nc(-c2ccc(C(=O)Nc3cc(C(F)(F)F)ccn3)cc2F)c2c(N)nccn12 [Compound I-4, 4-(8-AMINO-3-((2S,3AR,6AS)-1-(BUT-2-YNOYL)HEXAHYDRO-1H-FURO[3,4-B]PYRROL-2-YL)IMIDAZO[1,5-A]PYRAZIN-1-YL)-3-FLUORO-N-(4-(TRIFLUOROMETHYL)PYRIDIN-2-YL)BENZAMIDE] | > 1000 nM | 66 nM | 15%
4 | Nc1nccn2c([C@@H]3C[C@H]4COC[C@H]4N3C(=O)C3CC3)nc(-c3ccc(C(=O)Nc4cc(C(F)(F)F)ccn4)cc3F)c12 [Compound I-7, 4-(8-AMINO-3-((2S,3AR,6AS)-1-(CYCLOPROPANECARBONYL)HEXAHYDRO-1H-FURO[3,4-B]PYRROL-2-YL)IMIDAZO[1,5-A]PYRAZIN-1-YL)-3-FLUORO-N-(4-(TRIFLUOROMETHYL)PYRIDIN-2-YL)BENZAMIDE] | > 1000 nM | 52 nM | 29.9%

Reference: patent US11891405B2, “Furo[3,4-b]pyrrole-containing BTK inhibitor” (CHIA TAI TIANQING PHARMACEUTICAL GROUP CO., LTD., priority 2018, dated 2024)
